In US20250339377A1, “PHARMACEUTICAL COMPOSITION OF NUCLEOSIDE-DERIVED COMPOUND, PREPARATION METHOD THEREFOR, AND USE THEREOF” (SHENZHEN ANTIV PHARMA CO., LTD., priority 2022, published 2025):

How the values were obtained:
Assay type in all cases: physicochemical
[1] = Stability investigation - related substance; conditions: API, package N/A, condition N/A
Protocol: 37167-054A and 37167-054B were packed as described in Table 17 and Table 18, then separately placed under illumination (open), 40° C./75% RH (open), and 40° C./75% RH (closed) conditions for 0 day, 10 days, and 30 days, and detected for the dissolution and related substance.

[2] = Micromeritic properties of API and formula powders
Text: Detection of micromeritic properties: The micromeritic properties of the SHEN26 compound raw material and the micromeritic properties of the mixed powder obtained by directly mixing the SHEN26 compound and other auxiliary materials were detected.
Preparation method: pulverizing the compound SHEN26, sieving the compound (sieving separately with a 40-mesh sieve and a 60-mesh sieve), mixing with a pharmaceutically acceptable excipient, performing dry granulation, adding an external lubricant, mixing, and filling capsules to give a capsule of the compound SHEN26. Observation of phenomenon: After dry granulation, the micromeritic properties were examined, and the results are shown in Table 12. Dissolution detection: The compound SHEN26 capsules obtained in Example 4 were separately detected for the dissolution, and the results are shown in Table 13.

[3] = Compatibility of raw material and auxiliary material; conditions: 60° C., 25° C./90% RH, 40° C./75% RH, illumination; 30 days
Text: Operation: Common auxiliary materials of solid oral dosage forms were selected to be mixed with the SHEN26 drug substance in different ratios, and the mixtures were placed under different conditions and separately taken out at different time points. The compatibility of the drug substance and the auxiliary materials was judged by taking the appearance, the hygroscopic weight gain, the content and the related substance as indexes. For the ratio of the raw and auxiliary materials, according to “Basic Technical Guidelines for Research of Chemical Drug Formulation” and the specification of the formulation, the auxiliary material with a relatively large amount was determined according to a ratio of main drug:diluent=1:5, the auxiliary material with a moderate amount (such as croscarmellose sodium) was mixed according to a ratio of main drug:disintegrant=1:1, and the auxiliary material with a relatively small amount (such as magnesium stearate) was mixed according to a ratio of main drug:lubricant=5:1. The manufacturer information of the raw and auxiliary materials in the compatibility experiment and the ratio of raw and auxiliary materials are shown in Table 16. […]

Related substance % RRT 0.37 [1]: 0.26%
Related substance % RRT 0.54 [1]: 0.35%
Related substance % RRT 1.03 [1]: 0.15%
Related substance % RRT 1.30 [1]: 0.05%
Total impurity % [1]: 0.81%
Angle of repose (°) [2]: 40.98 °
Bulk density [2]: 0.53 g/mL
Carr index (%) [2]: 27.40%
Tap density [2]: 0.73 g/mL
Compatibility with auxiliary materials (appearance, hygroscopic weight gain, content, related substance) [3]: good compatibility
Structure (SMILES): CC(C)C(=O)OC[C@H]1O[C@@](C#N)(c2ccc3c(N)ncnn23)[C@H](O)[C@@H]1O [SHEN26]
